{
  "source": "patent US20230145794A1",
  "about": "“SOLVENT COMPOSITIONS PROMOTING PLANT GROWTH” (WinField Solutions, LLC, priority 2021, published 2023)",
  "key": {"[1]": {"experiment": "Physical properties of solvent/PGR compositions (flash point tester, pH, density)", "type": "physicochemical", "conditions": "flashpoint tester", "description": "The physical properties of the various solvents and solvent combinations in combination with the assortment of PGR compositions were determined using standard laboratory equipment. Flash point was determined using a flashpoint tester.\nThe solvents initially examined included 2-butoxy ethanol (“BE”), BHT, propylene glycol (“PG”), methoxy propanol, water, polyethelene glycol (“PEG”), and Tetrahydrofurfyl alcohol (“THFA”), alone and/or in various combinations, with and without PGR compositions including Kinetin, indole butyric acid (“IBA”) and gibberellin A4 (“GA4”)."}, "[2]": {"conditions": "known solvent, from Safety Data Sheet; cited from earlier work"}},
  "note": "Read-outs that look alike come from different tables or passages of the source.",
  "data": [
    {"compound": "COCC(C)O", "note": "(stereo not shown) [Comp 40, methoxy propanol]", "values": [
      {"measurement": "Flash Point", "setting": "[1]", "result": 89, "unit": "C°"}
    ]},
    {"compound": "OCC1CCCO1", "note": "(stereo not shown) [Comp 41, THFA]", "values": [
      {"measurement": "Flash Point", "setting": "[1]", "result": 183, "unit": "C°"}
    ]},
    {"compound": "CCOC(C)=O", "note": "[compound 1, Ethyl acetate]", "values": [
      {"measurement": "Density", "setting": "[2]", "result": 1.049, "unit": "g/mL"}
    ]},
    {"compound": "COCC(C)O", "note": "(stereo not shown) [compound 2, 1-methoxy-2-propanol]", "values": [
      {"measurement": "Density", "setting": "[2]", "result": 0.942, "unit": "g/mL"}
    ]},
    {"compound": "CCCCOCCO", "note": "[compound 3, Ethylene glycol butyl ether, 2-butoxyl ethanol]", "values": [
      {"measurement": "Flash Point", "setting": "[2]", "result": 60, "unit": "C. °"}
    ]},
    {"compound": "CCCCOCCOCCO", "note": "[compound 4, Diethylene glycol butyl ether]", "values": [
      {"measurement": "Density", "setting": "[2]", "result": 0.967, "unit": "g/mL"},
      {"measurement": "Flash Point", "setting": "[2]", "result": 78, "unit": "C. °"}
    ]},
    {"compound": "CCCCC(CC)COC(=O)C(C)O", "note": "(stereo not shown) [compound 5, Lactic acid, 2-ethylhexyl ester]", "values": [
      {"measurement": "Density", "setting": "[2]", "result": 1.209, "unit": "g/mL"},
      {"measurement": "Flash Point", "setting": "[2]", "result": 110, "unit": "C. °"}
    ]},
    {"compound": "OCC1CCCO1", "note": "(stereo not shown) [compound 6, Tetrahydrofurfyl Alcohol]", "values": [
      {"measurement": "Flash Point", "setting": "[2]", "result": 84, "unit": "C. °"}
    ]},
    {"compound": "CCCCC(CC)CO", "note": "(stereo not shown) [compound 7, Ethyl hexanol]", "values": [
      {"measurement": "Boiling Point", "setting": "[2]", "result": 185, "unit": "C. °"},
      {"measurement": "Density", "setting": "[2]", "result": 0.833, "unit": "g/mL"},
      {"measurement": "Flash Point", "setting": "[2]", "result": 73, "unit": "C. °"}
    ]},
    {"compound": "CCCCOC(=O)C(C)O", "note": "(stereo not shown) [compound 8, Butyl lactate]", "values": [
      {"measurement": "Flash Point", "setting": "[2]", "result": 76, "unit": "C. °"}
    ]},
    {"compound": "CC(O)CO", "note": "(stereo not shown) [compound 9, Propylene Glycol]", "values": [
      {"measurement": "Density", "setting": "[2]", "result": 1.036, "unit": "g/mL"},
      {"measurement": "Flash Point", "setting": "[2]", "result": 101, "unit": "C. °"}
    ]},
    {"compound": "CC(=O)OCCCCCCCC=O", "note": "[compound 11, Oxo-octyl acetate]", "values": [
      {"measurement": "Boiling Point", "setting": "[2]", "result": 211, "unit": "C. °"},
      {"measurement": "Density", "setting": "[2]", "result": 0.867, "unit": "g/mL"},
      {"measurement": "Flash Point", "setting": "[2]", "result": 86, "unit": "C. °"}
    ]},
    {"compound": "CC(=O)OCC(COC(C)=O)OC(C)=O", "note": "[compound 12, Glyceryl triacetate]", "values": [
      {"measurement": "Flash Point", "setting": "[2]", "result": 138, "unit": "C. °"}
    ]},
    {"compound": "CCCCCOC(C)=O", "note": "[compound 14, Amyl Acetate]", "values": [
      {"measurement": "Density", "setting": "[2]", "result": 0.876, "unit": "g/mL"},
      {"measurement": "Flash Point", "setting": "[2]", "result": 32, "unit": "C. °"}
    ]}
  ]
}
